Laboratory results as given in patent EP4818168A1, “FUSED RING COMPOUND, PHARMACEUTICAL COMPOSITION THEREOF AND USE THEREOF” (priority 2023, dated 2025).

Key:
[1] = biological target: T1, AURKA (Homo sapiens, UniProt O14965); type: cell-based; details: Jurkat cells, 24 h, Table 1
T1 construct: endogenous in cells; host or cells: Jurkat cells
T1 sequence (O14965 1-403): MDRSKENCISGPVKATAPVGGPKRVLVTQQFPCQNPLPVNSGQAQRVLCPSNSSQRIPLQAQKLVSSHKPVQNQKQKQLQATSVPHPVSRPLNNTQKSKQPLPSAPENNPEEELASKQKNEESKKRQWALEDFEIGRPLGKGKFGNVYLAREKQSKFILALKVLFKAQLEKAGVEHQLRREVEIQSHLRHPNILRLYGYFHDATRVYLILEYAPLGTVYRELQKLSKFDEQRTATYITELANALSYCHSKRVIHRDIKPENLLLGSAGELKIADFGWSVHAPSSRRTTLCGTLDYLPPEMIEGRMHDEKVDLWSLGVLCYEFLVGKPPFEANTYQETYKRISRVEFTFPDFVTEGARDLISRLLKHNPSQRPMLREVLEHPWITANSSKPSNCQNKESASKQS
In short: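 AURKA degradation read by western blot: band signal, fluorescent or chemiluminescent, curve-fitted to derive DC50. Cells were Jurkat, plated at 1×10^6 cells/500 µL with compound, then lysed and blotted onto nitrocellulose, primary antibody overnight at 4°C.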

[2] = system: HCC1806 cells; experiment: CTG assay of compound inhibition on cell viability (HCC1806 cells); type: cell-based; details: Homo sapiens, HCC1806, 144 h, read-out: IC50 in HCC1806 Cells
Protocol: CellTiter-Glo (CTG) is a rapid cell viability test method based on ATP detection. […] Adenosine triphosphate (ATP) participates in various enzymatic reactions in organisms and is an indicator of living cell metabolism. Its content directly reflects the number of living cells and cell status. During the experiment, equal volume of CTG reagent is added to the cultured cells to measure the luminescence value. The chemiluminescent signal value is proportional to the amount of ATP, thus reflecting the number of viable cells. Therefore, cell viability can be obtained by detecting the ATP content. Compounds that affect cell viability will inhibit cell viability in a concentration-dependent manner, allowing a curve to be fitted to obtain the IC50 value.
The experimental procedure is as follows: • 11. Place the cell suspension in a 15 mL centrifuge tube, centrifuge at 1000 rpm for 5 min at room temperature, discard the supernatant, and collect the cell pellet. • 12. Resuspend the cell pellet with preheated complete cell culture medium (RPMI1640+10%FBS+1%PS), and use a Countess® automated cell counter to detect cell viability and density. The cell viability must be above 90%. • 13. […] Transfer the compound solution to a 96-well plate seeded with cells (final concentration of DMSO 0.1%), and place in a cell incubator at 37°C, 5% CO2 for 6 days. • 15. […] Protect from light during the whole process. Perform optical signal readings using a SpectraMax i3x reader. • 16. Data analysis: Remaining activity (%) = 100% * (1 - ((LumDMSO - Lummedium) - Lumsample) / (LumDMSO - LumPBS/medium)). Use GraphPad Prism 9.0 software to draw an S-shaped dose-survival rate curve and calculate the IC50 value using a nonlinear regression model.

| Compound | Percentage of AURKA Degradation Induced by 100 nM Compound in Jurkat Cells [1] | Percentage of AURKA Degradation Induced by 1 µM Compound in Jurkat Cells [1] | IC50 [2] [nM] |
| --- | --- | --- | --- |
| COc1cc(Nc2ncc3c(n2)-c2ccc(Cl)cc2C(c2c(F)cccc2OC)=NC3)ccc1C(=O)NCCN1Cc2cc3c(cc2C1)C(=O)N(C1CCC(=O)NC1=O)C3=O (stereo not drawn) [Compound A17] | + (Degradation ≤ 30%) | + (Degradation ≤ 30%) | < 1000 |
| O=C1CCN(c2ccc(N3CCN(C4CN(C(=O)c5ccc(Nc6ncc7c(n6)-c6ccc(Cl)cc6C(c6c(F)cccc6F)=NC7)cc5)C4)CC3)cc2)C(=O)N1 [Compound A19] | ++ (30% < Degradation ≤ 70%) | + (Degradation ≤ 30%) | < 1000 |
| COc1cc(Nc2ncc3c(n2)-c2ccc(Cl)cc2C(c2c(F)cccc2OC)=NC3)ccc1C(=O)NCCN1CCN(c2cccn3c(N4CCC(=O)NC4=O)cnc23)CC1 [Compound A21] | +++ (Degradation > 70%) | +++ (Degradation > 70%) | < 1000 |
| O=C1CCN(c2cnc3c(N4CCN(CCNC(=O)c5ccc(Nc6ncc7c(n6)-c6ccc(Cl)cc6C(c6c(F)cccc6F)=NC7)cc5)CC4)cccn23)C(=O)N1 [Compound A22] | +++ (Degradation > 70%) | +++ (Degradation > 70%) | < 1000 |
| COc1cc(Nc2ncc3c(n2)-c2ccc(Cl)cc2C(c2c(F)cccc2OC)=NC3)ccc1C(=O)NCCN1CCC(n2cnc(N3CCC(=O)NC3=O)c2)CC1 [Compound A23] | + (Degradation ≤ 30%) | + (Degradation ≤ 30%) | < 1000 |
| COc1cc(Nc2ncc3c(n2)-c2ccc(Cl)cc2C(c2c(F)cccc2OC)=NC3)ccc1C(=O)NCCN1CCN(c2ncc(N3CCC(=O)NC3=O)s2)CC1 [Compound A24] | +++ (Degradation > 70%) | ++ (30% < Degradation ≤ 70%) | < 1000 |
| O=C1CCN(c2cnc(N3CCN(CCNC(=O)c4ccc(Nc5ncc6c(n5)-c5ccc(Cl)cc5C(c5c(F)cccc5F)=NC6)cc4)CC3)s2)C(=O)N1 [Compound A25] | +++ (Degradation > 70%) | ++ (30% < Degradation ≤ 70%) | < 1000 |
| COc1cc(Nc2ncc3c(n2)-c2ccc(Cl)cc2C(c2c(F)cccc2OC)=NC3)ccc1C(=O)NCCC#Cc1ccc(N2CCC(=O)NC2=O)cc1 [Compound A26] | + (Degradation ≤ 30%) | + (Degradation ≤ 30%) | < 1000 |
| COc1cc(Nc2ncc3c(n2)-c2ccc(Cl)cc2C(c2c(F)cccc2OC)=NC3)ccc1C(=O)NCC1CCN(Cc2ccc(N3CCC(=O)NC3=O)cc2)CC1 [Compound A27] | + (Degradation ≤ 30%) | + (Degradation ≤ 30%) | 1000 to 10000 |
| COc1cc(Nc2ncc3c(n2)-c2ccc(Cl)cc2C(c2c(F)cccc2OC)=NC3)ccc1C(=O)NC1CCN(Cc2ccc(N3CCC(=O)NC3=O)cc2)CC1 [Compound A28] | + (Degradation ≤ 30%) | + (Degradation ≤ 30%) | < 1000 |
| COc1cc(Nc2ncc3c(n2)-c2ccc(Cl)cc2C(c2c(F)cccc2OC)=NC3)ccc1C(=O)NCCN1CCN(c2ccc(N3CCC(=O)NC3=O)cn2)CC1 [Compound A29] | +++ (Degradation > 70%) | +++ (Degradation > 70%) | < 1000 |
| COc1cc(Nc2ncc3c(n2)-c2ccc(Cl)cc2C(c2c(F)cccc2OC)=NC3)ccc1C(=O)NCCN1CCN(c2ccc(N3CCC(=O)NC3=O)nc2)CC1 [Compound A30] | ++ (30% < Degradation ≤ 70%) | ++ (30% < Degradation ≤ 70%) | < 1000 |
| COc1cc(Nc2ncc3c(n2)-c2ccc(Cl)cc2C(c2c(F)cccc2OC)=NC3)ccc1C(=O)NCCOCCNc1ccn2c(N3CCC(=O)NC3=O)cnc2c1 [Compound A32] | + (Degradation ≤ 30%) | + (Degradation ≤ 30%) | > 10000 |
| COc1cc(Nc2ncc3c(n2)-c2ccc(Cl)cc2C(c2c(F)cccc2OC)=NC3)ccc1C(=O)N1CC2(CN(Cc3cccc4c3C(=O)N(C3CCC(=O)NC3=O)C4=O)C2)C1 (stereo not drawn) [Compound A33] | ++ (30% < Degradation ≤ 70%) | ++ (30% < Degradation ≤ 70%) | < 1000 |
| COc1cc(Nc2ncc3c(n2)-c2ccc(Cl)cc2C(c2c(F)cccc2OC)=NC3)ccc1C(=O)N1CC(N(C)CC#Cc2cccc3c2CN(C2CCC(=O)NC2=O)C3=O)C1 (stereo not drawn) [Compound A34] | ++ (30% < Degradation ≤ 70%) | ++ (30% < Degradation ≤ 70%) | < 1000 |
| COc1cc(Nc2ncc3c(n2)-c2ccc(Cl)cc2C(c2c(F)cccc2OC)=NC3)ccc1C(=O)N1CCC2(CCN(c3ccc(N4CCC(=O)NC4=O)cc3)CC2)C1 [Compound A36] | + (Degradation ≤ 30%) | + (Degradation ≤ 30%) | < 1000 |
| O=C1CCN(c2ccc(N3CCC4(CC3)CC(NC(=O)c3ccc(Nc5ncc6c(n5)-c5ccc(Cl)cc5C(c5c(F)cccc5F)=NC6)cc3)C4)cc2)C(=O)N1 [Compound A37] | +++ (Degradation > 70%) | +++ (Degradation > 70%) | < 1000 |
| COc1cc(Nc2ncc3c(n2)-c2ccc(Cl)cc2C(c2c(F)cccc2OC)=NC3)ccc1C(=O)NC1CC2(CCN(c3ccc(N4CCC(=O)NC4=O)cc3)CC2)C1 [Compound A38] | +++ (Degradation > 70%) | +++ (Degradation > 70%) | < 1000 |
| COc1cc(Nc2ncc3c(n2)-c2ccc(Cl)cc2C(c2c(F)cccc2OC)=NC3)ccc1C(=O)N(C)C1CC2(CCN(c3ccc(N4CCC(=O)NC4=O)cc3)CC2)C1 [Compound A40] | ++ (30% < Degradation ≤ 70%) | + (Degradation ≤ 30%) | < 1000 |
| COc1cc(Nc2ncc3c(n2)-c2ccc(Cl)cc2C(c2c(F)cccc2OC)=NC3)ccc1C(=O)N1CC2(CCN(c3ccc(N4CCC(=O)NC4=O)cc3)CC2)C1 [Compound A42] | + (Degradation ≤ 30%) | + (Degradation ≤ 30%) | > 10000 |
| O=C1CCN(c2ccc(N3CC4(CCN(C(=O)c5ccc(Nc6ncc7c(n6)-c6ccc(Cl)cc6C(c6c(F)cccc6F)=NC7)cc5)C4)C3)cc2)C(=O)N1 [Compound A43] | + (Degradation ≤ 30%) | + (Degradation ≤ 30%) | > 10000 |
| COc1cc(Nc2ncc3c(n2)-c2ccc(Cl)cc2C(c2c(F)cccc2OC)=NC3)ccc1C(=O)N1CCC2(C1)CN(c1ccc(N3CCC(=O)NC3=O)cc1)C2 [Compound A44] | + (Degradation ≤ 30%) | + (Degradation ≤ 30%) | < 1000 |
| COc1cc(Nc2ncc3c(n2)-c2ccc(Cl)cc2C(c2c(F)cccc2OC)=NC3)ccc1C(=O)NCCN1CCN(c2ncc(N3CCC(=O)NC3=O)cn2)CC1 [Compound A45] | ++ (30% < Degradation ≤ 70%) | ++ (30% < Degradation ≤ 70%) | < 1000 |
